Where a SMILES comes first, the peptide text is derived from it. Bridges are numbered along the chain shown (N, C = ends). [ ]: non-standard residue; d: D form. R8 = C=CCCCCCC[C@@](C)(N)C(=O)O; Chg = N[C@H](C(=O)O)C1CCCCC1; hLeu = CC(C)CC[C@H](N)C(=O)O; S5 = C=CCCC[C@](C)(N)C(=O)O; Nle = CCCC[C@H](N)C(=O)O; Ac3c = NC1(C(=O)O)CC1
Tests used:
[1] = target: MDM2 (Homo sapiens, UniProt Q00987); assay: Competitive fluorescence polarization assay for MDM2; assay type: binding; conditions: competitive FP assay, MDM2; for IC50: read-out: IC50 (MDM2); for Ki: read-out: Ki (MDM2)
Chain of MDM2 (Q00987 1-125): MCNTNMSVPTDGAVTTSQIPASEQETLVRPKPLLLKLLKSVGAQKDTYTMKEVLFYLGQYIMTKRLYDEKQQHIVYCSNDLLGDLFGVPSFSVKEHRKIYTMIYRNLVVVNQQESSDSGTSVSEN

[2] = target: T1, MDMX (Homo sapiens, UniProt O15151); assay: Competitive fluorescence polarization assay for MDMX; assay type: binding; conditions: competitive FP assay; for IC50: read-out: IC50 (MDMX); for Ki: read-out: Ki (MDMX)
T1 sequence (O15151 1-125): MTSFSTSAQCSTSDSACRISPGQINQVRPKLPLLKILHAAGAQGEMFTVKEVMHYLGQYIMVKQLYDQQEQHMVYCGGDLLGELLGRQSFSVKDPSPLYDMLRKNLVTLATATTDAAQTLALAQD

[3] = tested on: SJSA-1 cells; assay: Cell lysis by peptidomimetic macrocycles (LDH release); assay type: cell-based; conditions: 1 h at 37C

Compound | IC50 [1] | Ki [1] | IC50 [2] | Ki [2] | 6.25 uM % Lysed cells (1 h LDH) [3] | 25 uM % Lysed cells (1 h LDH) [3] | 50 uM % Lysed cells (1 h LDH) [3]
CCCC[C@H](NC(=O)[C@H](C)NC(=O)[C@H](C)NC(=O)[C@]1(C)CCCC=CCCCCCC[C@@](C)(NC(=O)[C@H](Cc2ccccc2)NC(=O)[C@@H](NC(=O)[C@H](CC(C)C)NC(C)=O)[C@@H](C)O)C(=O)N[C@@H](C)C(=O)N[C@@H](Cc2ccc(O)cc2)C(=O)N[C@@H](Cc2c[nH]c3ccccc23)C(=O)N[C@@H](C)C(=O)N[C@@H](CCC(N)=O)C(=O)N[C@@H](CC(C)C)C(=O)N1)C(=O)N[C@H](C)C(N)=O (single isomer, unassigned) [compound 75] | 10 to 100 nM | < 10 nM | 100 to 1000 nM | 10 to 100 nM | −1% | 1% | 1%
CC(=O)N[C@@H](CC(C)C)C(=O)N[C@H](C(=O)N[C@@H](Cc1ccccc1)C(=O)N[C@]1(C)CCCCCCC=CCCC[C@@](C)(C(=O)N[C@@H](CO)C(=O)N[C@@H](C)C(=O)N[C@@H](C)C(N)=O)NC(=O)[C@H](CC(C)C)NC(=O)[C@H](CCC(N)=O)NC(=O)[C@H](C)NC(=O)[C@H](Cc2c[nH]c3ccccc23)NC(=O)[C@H](Cc2ccc(C(=O)O)cc2)NC(=O)[C@H](C)NC1=O)[C@@H](C)O (single isomer, unassigned) [compound 169] | < 10 nM | < 10 nM | 10 to 100 nM | 10 to 100 nM | 2% | 3% | 7%
CC[C@H](C)[C@H](NC(=O)[C@H](C)NC(=O)[C@H](C)NC(=O)[C@]1(C)CCCC=CCCCCCC[C@@](C)(NC(=O)[C@H](Cc2ccccc2)NC(=O)[C@@H](NC(=O)[C@H](CC(C)C)NC(C)=O)[C@@H](C)O)C(=O)N[C@@H](C)C(=O)N[C@@H](Cc2ccc(C(=O)O)cc2)C(=O)N[C@@H](Cc2c[nH]c3ccccc23)C(=O)N[C@@H](C)C(=O)N[C@@H](CCC(N)=O)C(=O)N[C@@H](CC(C)C)C(=O)N1)C(=O)N[C@H](C)C(N)=O (single isomer, unassigned) [compound 182] | < 10 nM | < 10 nM | 100 to 1000 nM | 10 to 100 nM | 0% | 3% | 6%
CC[C@H](C)[C@H](NC(=O)[C@H](C)NC(=O)[C@H](C)NC(=O)[C@]1(C)CCCC=CCCCCCC[C@@](C)(NC(=O)[C@H](Cc2ccccc2)NC(=O)[C@@H](NC(=O)[C@H](CC(C)C)NC(C)=O)[C@@H](C)O)C(=O)N[C@@H](CCC(=O)O)C(=O)N[C@@H](Cc2ccc(O)cc2)C(=O)N[C@@H](Cc2c[nH]c3ccccc23)C(=O)N[C@@H](C)C(=O)N[C@@H](CCC(N)=O)C(=O)N[C@@H](CC(C)C)C(=O)N1)C(=O)N[C@H](C)C(N)=O (single isomer, unassigned) [compound 217] | < 10 nM | < 10 nM | 100 to 1000 nM | 10 to 100 nM | 2% | 1% | 2%
CC(=O)N[C@@H](CC(C)C)C(=O)N[C@H](C(=O)N[C@@H](Cc1ccccc1)C(=O)N[C@]1(C)CCCCCCC=CCCC[C@@](C)(C(=O)N[C@@H](C)C(=O)N[C@@H](C)C(=O)NC(C)(C)C(=O)N[C@@H](C)C(N)=O)NC(=O)[C@H](CC(C)C)NC(=O)[C@H](CCC(N)=O)NC(=O)[C@H](C)NC(=O)[C@H](Cc2c[nH]c3ccccc23)NC(=O)[C@H](Cc2ccc(O)cc2)NC(=O)[C@H](C)NC1=O)[C@@H](C)O (single isomer, unassigned) [compound 232] | < 10 nM | < 10 nM | 100 to 1000 nM | 10 to 100 nM | 6% | 5% | 5%
CC[C@H](C)[C@H](NC(=O)[C@H](C)NC(=O)[C@H](C)NC(=O)[C@]1(C)CCCC=CCCCCCC[C@@](C)(NC(=O)[C@H](Cc2ccccc2)NC(=O)[C@@H](NC(=O)[C@H](CC(C)C)NC(C)=O)[C@@H](C)O)C(=O)N[C@@H](CCC(=O)O)C(=O)N[C@@H](Cc2ccc(C(=O)O)cc2)C(=O)N[C@@H](Cc2c[nH]c3cc(Cl)ccc23)C(=O)N[C@@H](C)C(=O)N[C@@H](CCC(N)=O)C(=O)N[C@@H](CC2CCC2)C(=O)N1)C(=O)N[C@H](C)C(N)=O (single isomer, unassigned) [compound 336] | < 10 nM | < 10 nM | 10 to 100 nM | < 10 nM | 0% | 0% | 0%
CCCC[C@H](NC(=O)[C@H](C)NC(=O)[C@H](CO)NC(=O)[C@]1(C)CCCC=CCCCCCC[C@@](C)(NC(=O)[C@H](Cc2ccccc2)NC(=O)[C@@H](NC(=O)[C@H](CC(C)C)NC(C)=O)[C@@H](C)O)C(=O)N[C@@H](C)C(=O)N[C@@H](Cc2ccc(O)cc2)C(=O)N[C@@H](Cc2c[nH]c3ccccc23)C(=O)N[C@@H](C)C(=O)N[C@@H](CCC(N)=O)C(=O)N[C@@H](CC(C)C)C(=O)N1)C(N)=O [compound 3] (Ac-LTF[R8]AYWAQL[S5]SA[Nle]-NH2; staple 4-11) | 100 to 1000 nM | 10 to 100 nM | 100 to 1000 nM | 10 to 100 nM | 1% | 1% | 3%
CC(=O)N[C@@H](CC(C)C)C(=O)N[C@H](C(=O)N[C@@H](Cc1ccccc1)C(=O)N[C@]1(C)CCCCCCC=CCCC[C@@](C)(C(=O)N[C@@H](CO)C(=O)N[C@@H](C)C(=O)N[C@@H](CCC(C)C)C(N)=O)NC(=O)[C@H](CC(C)C)NC(=O)[C@H](CCC(N)=O)NC(=O)[C@H](C)NC(=O)[C@H](Cc2c[nH]c3ccccc23)NC(=O)[C@H](Cc2ccc(O)cc2)NC(=O)[C@H](C)NC1=O)[C@@H](C)O [compound 6] (Ac-LTF[R8]AYWAQL[S5]SA[hLeu]-NH2; staple 4-11) | 100 to 1000 nM | 10 to 100 nM | 100 to 1000 nM | 10 to 100 nM | 1% | 1% | 1%
CC(=O)N[C@@H](CC(C)C)C(=O)N[C@H](C(=O)N[C@@H](Cc1ccccc1)C(=O)N[C@]1(C)CCCCCCC=CCCC[C@@](C)(C(=O)N[C@@H](CO)C(=O)N[C@@H](C)C(=O)N[C@H](C(N)=O)C2CCCCC2)NC(=O)[C@H](CC(C)C)NC(=O)[C@H](CCC(N)=O)NC(=O)[C@H](C)NC(=O)[C@H](Cc2c[nH]c3ccccc23)NC(=O)[C@H](Cc2ccc(O)cc2)NC(=O)[C@H](C)NC1=O)[C@@H](C)O [compound 9] (Ac-LTF[R8]AYWAQL[S5]SA[Chg]-NH2; staple 4-11) | 100 to 1000 nM | 10 to 100 nM | 100 to 1000 nM | 10 to 100 nM | −3% | 0% | 2%
CC(=O)N[C@@H](Cc1ccccc1)C(=O)N[C@]1(C)CCCCCCC=CCCC[C@@](C)(C(=O)N[C@@H](C)C(=O)N[C@@H](C)C(=O)N[C@@H](CC(C)C)C(N)=O)NC(=O)[C@H](CC(C)C)NC(=O)C2(CC2)NC(=O)[C@H](CCC(=O)O)NC(=O)[C@H](Cc2c[nH]c3ccccc23)NC(=O)[C@H](Cc2ccc(O)cc2)NC(=O)[C@H](C)NC1=O [compound 15] (Ac-F[R8]AYWE[Ac3c]L[S5]AAL-NH2; staple 2-9) | 10 to 100 nM | 10 to 100 nM | 100 to 1000 nM | 10 to 100 nM | 1% | 2% | 5%
CC(=O)N[C@@H](Cc1ccccc1)C(=O)N[C@]1(C)CCCCCCC=CCCC[C@@](C)(C(=O)N[C@@H](C)C(=O)N[C@@H](C)C(=O)N[C@@H](Cc2ccccc2)C(N)=O)NC(=O)[C@H](CC(C)C)NC(=O)C2(CC2)NC(=O)[C@H](CCC(=O)O)NC(=O)[C@H](Cc2c[nH]c3ccccc23)NC(=O)[C@H](Cc2ccc(O)cc2)NC(=O)[C@H](C)NC1=O [compound 18] (Ac-F[R8]AYWE[Ac3c]L[S5]AAF-NH2; staple 2-9) | 10 to 100 nM | < 10 nM | 10 to 100 nM | < 10 nM | 0% | 2% | 4%
CC[C@H](C)[C@H](NC(=O)[C@H](C)NC(=O)[C@H](C)NC(=O)[C@]1(C)CCCC=CCCCCCC[C@@](C)(NC(=O)[C@H](Cc2ccccc2)NC(C)=O)C(=O)N[C@@H](C)C(=O)N[C@@H](Cc2ccc(O)cc2)C(=O)N[C@@H](Cc2c[nH]c3ccccc23)C(=O)N[C@@H](CCC(=O)O)C(=O)NC2(CC2)C(=O)N[C@@H](CC(C)C)C(=O)N1)C(N)=O [compound 19] (Ac-F[R8]AYWE[Ac3c]L[S5]AAI-NH2; staple 2-9) | 100 to 1000 nM | 10 to 100 nM | 10 to 100 nM | 10 to 100 nM | 2% | 3% | 21%

— patent US8927500B2, “Peptidomimetic macrocycles” (Aileron Therapeutics, Inc., priority 2012, dated 2015)
